These results are taken from ChEMBL document CHEMBL4831545, “Hormesis Effect of Berberine against Klebsiella pneumoniae Is Mediated by Up-Regulation of the Efflux Pump KmrA” (J Nat Prod, 2021).

Data set [1] has as its system Klebsiella pneumoniae. Briefly: Hormesis activity against Klebsiella pneumoniae deficient in KmrA gene expression assessed as increase in antibiotic MIC by measuring ampicillin MIC at 3 ug/ml incubated for 12 hrs by OD600 based analysis (reference value: 12.5 ug/ml). Type of data set: ADME, organism-based. The settings on record: in vivo, dose 3 µg/ml.
The test system of data set [2] is Klebsiella pneumoniae. Briefly: Hormesis activity against Klebsiella pneumonia assessed as promotion of bacterial growth by measuring prolonged logarithmic growth phase at 3 to 6 ug/ml measured for 24 hrs in presence of 1 ug/ml tetracycline by OD600 based analysis. The data set is classed as organism-based. The settings on record: in vivo, dose 3-6 µg/ml.
Data set [3] relates to Acinetobacter baumannii. As to the kind of experiment: Hormesis activity against overnight-compound treated Acinetobacter baumannii assessed as increase in antibiotic MIC by measuring rifampicin MIC at 3 ug/ml incubated for 12 hrs by OD600 based analysis (reference value: 1.5625 ug/ml). Type of data set: ADME, organism-based. Conditions: in vivo, dose 3 µg/ml.
Data set [4] has as its system Acinetobacter baumannii. As to the kind of experiment: Hormesis activity against Acinetobacter baumannii assessed as increase in antibiotic MIC by measuring cefotaxime MIC at 3 ug/ml incubated for 12 hrs by OD600 based analysis (reference value: 12.5 ug/ml). Type of data set: ADME, organism-based. The settings on record: in vivo, dose 3 µg/ml.
Data set [5] concerns Enterobacter cloacae. Briefly: Hormesis activity against Enterobacter cloacae assessed as increase in antibiotic MIC by measuring ciprofloxacin MIC at 3 ug/ml incubated for 12 hrs by OD600 based analysis (reference value: 0.0390625 ug/ml). The data set is classed as ADME, organism-based. The settings on record: in vivo, dose 3 µg/ml.
The subject of data set [6] is Klebsiella pneumoniae. Briefly: Hormesis activity against Klebsiella pneumonia assessed as promotion of bacterial growth at 3 to 50 ug/ml measured for 24 hrs in presence of 4 ug/ml tetracycline by OD600 based analysis. Type of data set: organism-based. Conditions: in vivo, dose 3-50 µg/ml.
Data set [7] deals with Klebsiella pneumoniae. Briefly: Hormesis activity against Klebsiella pneumoniae deficient in KmrA gene expression assessed as increase in antibiotic MIC by measuring tetracycline MIC at 3 ug/ml incubated for 12 hrs by OD600 based analysis (reference value: 6 ug/ml). The data set is classed as ADME, organism-based. The settings on record: in vivo, dose 3 µg/ml.
A short description of data set [8]: Upregulation of efflux pump regulator promoter activity in Klebsiella pneumoniae assessed as increase in beta-galactosidase activity at 3 to 50 ug/ml by LacZ based OD600 analysis. The data set is classed as ADME. Conditions: dose 3-50 µg/ml.
Data set [9] concerns Enterobacter cloacae. Briefly: Hormesis activity against Enterobacter cloacae assessed as increase in antibiotic MIC by measuring atreonamMIC at 3 ug/ml incubated for 12 hrs by OD600 based analysis (reference value: 3.125 ug/ml). Type of data set: ADME, organism-based. The settings on record: in vivo, dose 3 µg/ml.
In data set [10] the test system is Klebsiella pneumoniae. As to the kind of experiment: Hormesis activity against Klebsiella pneumonia assessed as promotion of bacterial growth by measuring prolonged logarithmic growth phase at 3 to 6 ug/ml measured from 840 to 1440 mins by OD600 based analysis. The settings on record: in vivo, dose lower 3 µg/ml, time lower 840 min, dose upper 6 µg/ml, time upper 1440 min. Type of data set: organism-based.

For data set [11], the system named is Klebsiella pneumoniae. Briefly: Hormesis activity against overnight compound-treated Klebsiella pneumoniae assessed as increase in antibiotic MIC by measuring hygromycinMIC at 3 ug/ml incubated for 12 hrs by OD600 based analysis (reference value: 12.5 ug/ml). Type of data set: ADME, organism-based. The settings on record: in vivo, dose 3 µg/ml.
Data set [12] concerns Acinetobacter baumannii. As to the kind of experiment: Hormesis activity against overnight-compound treated Acinetobacter baumannii assessed as increase in antibiotic MIC by measuring ampicillin MIC at 3 ug/ml incubated for 12 hrs by OD600 based analysis (reference value: 100 ug/ml). The settings on record: in vivo, dose 3 µg/ml. The data set is classed as ADME, organism-based.

Data set [13] has as its system Acinetobacter baumannii. As to the kind of experiment: Hormesis activity against overnight-compound treated Acinetobacter baumannii assessed as increase in antibiotic MIC by measuring meropenem MIC at 3 ug/ml incubated for 12 hrs by OD600 based analysis (reference value: 0.625 ug/ml). Type of data set: ADME, organism-based. The settings on record: in vivo, dose 3 µg/ml.

Data set [14] relates to Klebsiella pneumoniae. As to the kind of experiment: Hormesis activity against overnight compound-treated Klebsiella pneumoniae deficient in KmrA gene expression assessed as increase in antibiotic MIC by measuring rifampicin MIC at 3 ug/ml incubated for 12 hrs by OD600 based analysis (reference value: 25 ug/ml). The data set is classed as ADME, organism-based. Conditions: in vivo, dose 3 µg/ml.

In data set [15] the test system is Klebsiella pneumoniae. Briefly: Hormesis activity against Klebsiella pneumoniae deficient in KmrA gene expression assessed as increase in antibiotic MIC by measuring chloramphenicol MIC at 3 ug/ml incubated for 12 hrs by OD600 based analysis (reference value: 6.25 ug/ml). The data set is classed as ADME, organism-based. The settings on record: in vivo, dose 3 µg/ml.

In data set [16] the test system is Enterobacter cloacae. As to the kind of experiment: Hormesis activity against overnight compound-treated Enterobacter cloacae assessed as increase in antibiotic MIC by measuring ampicillin MIC at 3 ug/ml incubated for 12 hrs by OD600 based analysis (reference value: 25 ug/ml). Type of data set: ADME, organism-based. Conditions: in vivo, dose 3 µg/ml.
Data set [17] concerns Klebsiella pneumoniae. Briefly: Hormesis activity against overnight compound-treated Klebsiella pneumoniae assessed as increase in antibiotic MIC by measuring rifampicin MIC at 3 ug/ml incubated for 12 hrs by OD600 based analysis (reference value: 25 ug/ml). The data set is classed as ADME, organism-based. Conditions: in vivo, dose 3 µg/ml.
For data set [18], the system named is Acinetobacter baumannii. Briefly: Hormesis activity against overnight-compound treated Acinetobacter baumannii assessed as increase in antibiotic MIC by measuring azithromycin MIC at 3 ug/ml incubated for 12 hrs by OD600 based analysis (reference value: 200 ug/ml). The data set is classed as ADME, organism-based. Conditions: in vivo, dose 3 µg/ml.
Data set [19] can be described thus: Upregulation of KmrA promoter activity in Klebsiella pneumoniae assessed as increase in beta-galactosidase activity at 6 to 50 ug/ml by LacZ based OD600 analysis. Type of data set: ADME. Conditions: dose 6-50 µg/ml.
Data set [20] concerns Enterobacter cloacae. Briefly: Hormesis activity against Enterobacter cloacae assessed as increase in antibiotic MIC by measuring hygromycinMIC at 3 ug/ml incubated for 12 hrs by OD600 based analysis (reference value: 25 ug/ml). The data set is classed as ADME, organism-based. Conditions: in vivo, dose 3 µg/ml.
The nature of data set [21]: Upregulation of efflux pump regulator promoter activity in Klebsiella pneumoniae assessed as increase in beta-galactosidase activity at 50 ug/ml by LacZ based OD600 analysis relative to control. The data set is classed as ADME. The settings on record: dose 50 µg/ml.
The test system of data set [22] is Klebsiella pneumoniae. Briefly: Hormesis activity against Klebsiella pneumoniae deficient in KmrA gene expression assessed as increase in antibiotic MIC by measuring streptomycin MIC at 3 ug/ml incubated for 12 hrs by OD600 based analysis (reference value: 0.78125 ug/ml). Conditions: in vivo, dose 3 µg/ml. Type of data set: ADME, organism-based.
Data set [23] deals with Acinetobacter baumannii. Briefly: Hormesis activity against overnight-compound treated Acinetobacter baumannii assessed as increase in antibiotic MIC by measuring hygromycinMIC at 3 ug/ml incubated for 12 hrs by OD600 based analysis (reference value: 125 ug/ml). The data set is classed as ADME, organism-based. Conditions: in vivo, dose 3 µg/ml.
The test system of data set [24] is Klebsiella pneumoniae. As to the kind of experiment: Hormesis activity against overnight compound-treated Klebsiella pneumoniae assessed as increase in antibiotic MIC by measuring chloramphenicol MIC at 3 ug/ml incubated for 12 hrs by OD600 based analysis (reference value: 6.25 ug/ml). Type of data set: ADME, organism-based. The settings on record: in vivo, dose 3 µg/ml.

In the case of `COc1ccc2cc3[n+](cc2c1OC)CCc1cc2c(cc1-3)OCO2` [BERBERINE], the MIC in the data set with Klebsiella pneumoniae [1] was 12.5 µg/mL; in the data set with Acinetobacter baumannii [3] it was 6.25 µg/mL; in the data set on Acinetobacter baumannii [4], 12.5 µg/mL; with Enterobacter cloacae [5] it was 0.07812 µg/mL; with Klebsiella pneumoniae [7], 6 µg/mL; in the data set with Enterobacter cloacae [9], 3.125 µg/mL. For the same molecule, the MIC in the data set on Klebsiella pneumoniae [11] came out at 12.5 µg/mL; in the data set on Acinetobacter baumannii [12], 200 µg/mL; in the data set on Acinetobacter baumannii [13], 0.625 µg/mL; in the data set on Klebsiella pneumoniae [14], 25 µg/mL; in the data set with Klebsiella pneumoniae [15], 6.25 µg/mL; in the data set with Enterobacter cloacae [16], 50 µg/mL. Further, the MIC in the data set on Klebsiella pneumoniae [17] came to 50 µg/mL; in the data set on Acinetobacter baumannii [18], 400 µg/mL; in the data set with Enterobacter cloacae [20] it was 25 µg/mL; with Klebsiella pneumoniae [22], 0.7812 µg/mL; in the data set with Acinetobacter baumannii [23] it was 250 µg/mL; in the data set on Klebsiella pneumoniae [24], 6.25 µg/mL. Further, the Activity result (in the data set on Klebsiella pneumoniae [2]; with Klebsiella pneumoniae [6]; in data set [8]; with Klebsiella pneumoniae [10]; in [19]) was “Toxic” each time. In addition, the “fold change (FC)” value in [21] came to 2.
